≈ marks a conversion by molar mass, not a printed value. A value given as a limit tells only on which side of the number the result lay.

Data set [1] deals with T1, aromatase (Homo sapiens, UniProt P11511).
T1 construct: high levels of aromatase in the adipose tissue; from tissue; host or cells: in vivo, human subjects (aromatase of adipose tissue)
T1 sequence (P11511 1-503): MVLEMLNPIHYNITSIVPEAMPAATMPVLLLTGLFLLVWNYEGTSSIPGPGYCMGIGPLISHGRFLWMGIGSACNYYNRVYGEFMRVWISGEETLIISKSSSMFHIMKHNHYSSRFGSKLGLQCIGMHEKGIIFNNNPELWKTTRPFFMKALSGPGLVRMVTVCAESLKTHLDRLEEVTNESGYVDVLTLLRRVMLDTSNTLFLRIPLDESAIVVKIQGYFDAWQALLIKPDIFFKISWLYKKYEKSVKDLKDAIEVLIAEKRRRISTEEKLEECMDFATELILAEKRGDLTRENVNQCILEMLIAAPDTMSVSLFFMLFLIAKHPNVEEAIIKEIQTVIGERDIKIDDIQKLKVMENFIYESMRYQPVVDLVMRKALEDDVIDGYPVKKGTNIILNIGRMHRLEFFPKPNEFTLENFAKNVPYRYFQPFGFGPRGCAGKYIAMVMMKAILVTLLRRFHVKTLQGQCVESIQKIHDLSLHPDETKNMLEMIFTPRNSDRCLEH
Description: Low dose study in obese men with low testosterone, with PK/PD analyses of aromatase inhibition. It is filed as in vivo.

Data set [2] deals with T2, aromatase (Rattus norvegicus, UniProt P22443).
T2 construct: achieving medical castration in adult female rats; from tissue; host or cells: in vivo, adult female rats
T2 sequence (P22443 1-508): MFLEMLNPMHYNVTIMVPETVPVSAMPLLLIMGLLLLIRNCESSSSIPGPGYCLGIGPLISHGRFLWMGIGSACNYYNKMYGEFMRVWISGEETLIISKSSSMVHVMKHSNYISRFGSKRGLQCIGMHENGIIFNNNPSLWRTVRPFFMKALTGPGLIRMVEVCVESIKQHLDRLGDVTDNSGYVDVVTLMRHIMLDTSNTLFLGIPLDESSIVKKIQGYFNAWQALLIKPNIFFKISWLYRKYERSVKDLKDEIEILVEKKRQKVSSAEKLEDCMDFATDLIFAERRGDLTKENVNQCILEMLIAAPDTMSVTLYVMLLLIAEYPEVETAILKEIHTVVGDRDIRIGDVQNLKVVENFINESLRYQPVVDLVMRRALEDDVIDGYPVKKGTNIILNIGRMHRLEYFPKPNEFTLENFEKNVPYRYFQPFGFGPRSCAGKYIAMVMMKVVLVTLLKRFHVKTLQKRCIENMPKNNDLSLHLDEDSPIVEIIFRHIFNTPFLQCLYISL
The conditions noted are these: once weekly administration, adult female rats; cited from earlier work.

The next data set relates to testosterone levels. Description: Serum testosterone levels in male dogs after 1, 4 and 12 weeks of dosing. The class given is in vivo. The conditions noted are these: all dose levels. From the text: (§1) Generally, the inter-animal variability in Cmax levels was small.
Data set [3] is described as follows: Single ascending dose study in pre- and post-menopausal women: safety, tolerability and PK. The note with it: for AUC(0-tlast) Mean / Cmax Mean / T1/2 Mean / Tmax Median: po. It is filed as in vivo, human. An excerpt: The drug concentration in plasma and/or serum samples can be determined by a number of different ways, e.g. HPLC or LC-MS/MS analyses. […]
(§2) A minimal toxic dose (MTD) was not reached. […] Table 3 presents the PK parameters based on analysis of the concentration-time profile obtained from this study.

The target of data set [4] is T1, aromatase. The conditions noted are these: microsomal fraction of human placenta; cited from earlier work.
Data set [5] is described as follows: Tissue (fat) biopsy concentration versus plasma. The conditions noted are these: human fat biopsies, read-out: concentration in tissue (fat) relative to plasma/blood. It is filed as in vivo.
Data set [6] can be described thus: Single 1.0 mg dose with combined oral contraceptive in premenopausal women (PK interaction, safety). Here is the method: The study consisted of a 49-day screening period and four consecutive 28-day (menstrual) cycles.
For the combined oral contraceptive, 30 μg of ethinyl estradiol and 0.15 mg of levonorgestrel (Seasonique®) was used. Seasonique® is an oral contraceptive designed and approved for daily administration. The 84 blue-green tablets (30-μg ethinyl estradiol and 0.15 mg levonorgestrel) are packaged with seven yellow tablets containing 10-μg ethinyl estradiol to eliminate the hormone free interval.

Data set [7] is described as follows: Toxicologic studies in dogs: plasma exposure after single and weekly oral dosing. It is filed as in vivo.
From the text: as §1

Data set [8] relates to estrone, estrone sulfate and estradiol. Description: Single ascending dose study in women: PD (estrogen suppression). The class given is in vivo, human.
From the text: as §2

Setting [9] is: female, human, in vivo, 0.01 mg.
Setting [10] is: female, human, in vivo, 0.03 mg.

One may read the IC90 as the concentration needed for an effect of 90%. As a reminder, the Tmax is the time at which the peak concentration occurs. Turning to `N#Cc1ccc(C(F)(c2ccc(C#N)cc2)n2cncn2)cc1` [CGP47645, 4,4′-[fluoro-(1-H-1,2,4-triazol-1-yl)methylene]bisbenzonitrile], at aromatase [1] (PK/PD analyses, plasma concentration), the “average estimated IC40 for aromatase inhibition” value was 0.03 ng/mL. Moreover, the IC90 on aromatase [1] (PK/PD analyses, plasma concentration, read-out: average estimated IC90 for aromatase inhibition) was 0.27 ng/mL (≈ 0.89 nM). In addition, the “lowest dose with effects on the aromatase-testosterone-estradiol pathway” value at aromatase [1] (females and males with obesity-associated hypogonadotropic hypogonadism, blood levels below IC50) came to 0.003 mg. In addition, on aromatase [2], the “effective dose achieving medical castration” value was 3 mg/kg. Also, the serum testosterone levels entry in the data set with testosterone levels is “dramatically elevated testosterone levels”. The inter-subject variability in [3] (female, human, in vivo) is 10-30%. The Tmax is 0.5 to 2 h in data set [3] (female, human, in vivo, Tmax) and at most 1 h in data set [3] (female, human, in vivo, median Tmax). The “AUC(0-tlast) Mean” value in [3] (setting [9]) turned out to be 1.4 ng·h/mL; in data set [3] (setting [10]) it was 24.1 ng·h/mL; in [3] (female, human, in vivo, 0.1 mg), 116.2 ng·h/mL. Further, the “Cmax Mean” value in data set [3] (setting [9]) is given as 0.2 ng/mL; in [3] (setting [10]), 0.4 ng/mL; in data set [3] (female, human, in vivo, 0.1 mg), 1.7 ng/mL. For the same molecule, the “T1/2 Mean” value in [3] (setting [9]) came to 55.2 h; in data set [3] (setting [10]), 396 h; in [3] (female, human, in vivo, 0.1 mg) it was 564 h. In addition, the “Tmax Median” value in data set [3] (setting [9]) amounted to 1 h; in [3] (female, human, in vivo, 0.1 mg), 1 h; in data set [3] (female, human, in vivo, 0.3 mg), 1 h; in data set [3] (female, human, in vivo, 1 mg), 1 h; in data set [3] (female, human, in vivo, 3 mg) it was 1 h. Besides, the “dose dependence of half-life” value in [3] (human, in vivo) is given as “directly dose dependent”. Further, the “dose proportionality of Cmax and AUC” value in data set [3] (human, in vivo) is on record as “increased in a dose-proportional manner”. Further, the “difference in pharmacokinetics between post- and pre-menopausal women” value in data set [3] (in vivo) is “No differences”. Also, the “minimal toxic dose (MTD)” value in data set [3] (single doses 0.01 mg through 20 mg, post-menopausal women) was “not reached”. Also, the “mode of aromatase inhibition” value at aromatase [4] is “competitive inhibitor”. In addition, in data set [5], the Kp is at most 10. Also, the “safety of co-administration with continuously dosed COC” value in data set [6] (in vivo) is “may be co-administered safely”. Besides, the “pharmacokinetic parameters with COC compared with single ascending dose study without COC” value in data set [6] (in vivo, po) is given as “similar”. The “difference in exposure (AUC and Cmax) between male and female dogs” value in [7] (dogs) is recorded as “no consistent difference”. Besides, in data set [7] (dogs, weekly oral dosing for 4 or 22 weeks versus single dose), the drug accumulation result is reported as “no drug accumulation”. In addition, the “increase in exposure (AUC and Cmax) with dose” value in data set [7] (male and female dogs, single and multiple doses, all dose levels) is reported as “generally proportional to the dose increase”. Besides, the “lowest single dose at which maximal estrogen suppression was observed” value in data set [8] (post-menopausal women, chemiluminescence or radioimmunoassay) is 0.1 mg. In addition, in data set [8] (postmenopausal women), the “lowest single dose at which transient estrogen suppression was seen” value is 0.01 mg. Also, in [8] (postmenopausal women, doses of 0.1 mg and 0.3 mg), the “estrone suppression compared with letrozole” value is recorded as “at least equal to letrozole”. Also, the “inhibition of estrone, estrone sulfate and estradiol” value in data set [8] (women, single ascending doses) is on record as “dose-dependent inhibition”.

On to `C#C[C@]1(O)CC[C@H]2[C@@H]3CCC4=CC(=O)CC[C@@H]4[C@H]3CC[C@@]21CC` [levonorgestrel, reference compound], for which, in [6] (Day 29, surgically sterile healthy premenopausal women, COC 30 μg ethinyl estradiol and 0.15 mg levonorgestrel), the “steady state pharmacokinetic profile with 1 mg CGP47645 versus placebo” value was “similar”.

The record behind these values is patent US20190192485A1, “DOSAGE REGIMEN FOR THE TREATMENT OF ENDOMETRIOSIS” (MEREO BIOPHARMA 2 LIMITED, priority 2016, published 2019).
